Source: the supplement of paper PMC10307832

Legend:
Experiment in all cases: relative viability (nuclei count vs DMSO), 5 days (fraction); higher = more cells survive
Doxorubicin + Olaparib = compound: COc1cccc2c1C(=O)c1c(O)c3c(c(O)c1C2=O)C[C@@](O)(C(=O)CO)C[C@@H]3O[C@H]1C[C@H](N)[C@H](O)[C@H](C)O1 [Doxorubicin] + O=C(c1cc(Cc2n[nH]c(=O)c3ccccc23)ccc1F)N1CCN(C(=O)C2CC2)CC1 [Olaparib] (partner 8 µM)
Method in brief: (§1)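 Lung cancer cell lines in 1536-well plates got either a single drug or a fixed anchor-drug dose together with five library-drug doses (not always all listed) in √10 steps, by pin tool, on the day after seeding. Nuclei were counted after 5 days, and relative viability is the treated-to-vehicle ratio of nuclei counts. Values are medians of duplicate plates.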

Doxorubicin + Lapatinib = compound: COc1cccc2c1C(=O)c1c(O)c3c(c(O)c1C2=O)C[C@@](O)(C(=O)CO)C[C@@H]3O[C@H]1C[C@H](N)[C@H](O)[C@H](C)O1 [Doxorubicin] + CS(=O)(=O)CCNCc1ccc(-c2ccc3ncnc(Nc4ccc(OCc5cccc(F)c5)c(Cl)c4)c3c2)o1 [Lapatinib] (partner 2 µM)
Method in brief: as §1

BAY61-3606 + Tozasertib = compound: COC1=C(C=C(C=C1)C2=CC3=NC=CN3C(=N2)NC4=C(C=CC=N4)C(=O)N)OC [BAY61-3606] + Cc1cc(Nc2cc(N3CCN(C)CC3)nc(Sc3ccc(NC(=O)C4CC4)cc3)n2)n[nH]1 [Tozasertib] (partner 0.1 µM)
Method in brief: as §1

[1] = compound: COc1cccc2c1C(=O)c1c(O)c3c(c(O)c1C2=O)C[C@@](O)(C(=O)CO)C[C@@H]3O[C@H]1C[C@H](N)[C@H](O)[C@H](C)O1 [Doxorubicin] + CC(=O)c1c(C)c2cnc(Nc3ccc(N4CCNCC4)cn3)nc2n(C2CCCC2)c1=O [Palbociclib] (partner 0.5 µM)
Method in brief: as §1

Question: For UMC-11, which relative viability (Doxorubicin + Olaparib; first compound 0.001 µM) is on record?
Answer: 0.38

Question: And the relative viability (Doxorubicin + Olaparib; first compound 0.003162 µM)?
Answer: 0.401

Question: What about the relative viability (Doxorubicin + Olaparib; first compound 0.01 µM) of the same cell line?
Answer: 0.322

Question: What about the relative viability (Doxorubicin + Olaparib; first compound 0.03162 µM) of the same cell line?
Answer: 0.302

Question: What about the relative viability (Doxorubicin + Olaparib; first compound 0.1 µM) of the same cell line?
Answer: 0.275

Question: And the relative viability (Doxorubicin + Lapatinib; first compound 0.001 µM)?
Answer: 1.22

Question: What about the relative viability (Doxorubicin + Lapatinib; first compound 0.003162 µM) of the same cell line?
Answer: 1.13

Question: And the relative viability (Doxorubicin + Lapatinib; first compound 0.01 µM)?
Answer: 0.906

Question: And the relative viability (Doxorubicin + Lapatinib; first compound 0.03162 µM)?
Answer: 0.514

Question: And the relative viability (Doxorubicin + Lapatinib; first compound 0.1 µM)?
Answer: 0.456

Question: And the relative viability (BAY61-3606 + Tozasertib; first compound 0.02 µM)?
Answer: 0.2

Question: And the relative viability (BAY61-3606 + Tozasertib; first compound 0.06325 µM)?
Answer: 0.208

Question: And the relative viability (BAY61-3606 + Tozasertib; first compound 0.2 µM)?
Answer: 0.207

Question: And the relative viability (BAY61-3606 + Tozasertib; first compound 0.6325 µM)?
Answer: 0.201

Question: And the relative viability (BAY61-3606 + Tozasertib; first compound 2 µM)?
Answer: 0.192

Question: What about the relative viability ([1]; first compound 0.001 µM) of the same cell line?
Answer: 0.378

Question: And the relative viability ([1]; first compound 0.003162 µM)?
Answer: 0.339

Question: What about the relative viability ([1]; first compound 0.01 µM) of the same cell line?
Answer: 0.314

Question: And the relative viability ([1]; first compound 0.03162 µM)?
Answer: 0.256

Question: And the relative viability ([1]; first compound 0.1 µM)?
Answer: 0.325
